Test results published in patent publication US12528761B2, “Thyromimetics” (Autobahn Therapeutics, Inc., priority 2020, dated 2026).

What was measured:
[1] = molecular target: T1, TRα (Homo sapiens, UniProt P10827); test: TR reporter-gene assay (Gal4 DBD hybrid, luciferase), TRα; assay type: cell-based; settings: HEK293-derived reporter cells, 24 hr treatment; read-out: TRα EC50
T1 construct: expressed in transfected cells; host or cells: HEK293
T1 sequence (P10827 1-410 isoform P10827-2): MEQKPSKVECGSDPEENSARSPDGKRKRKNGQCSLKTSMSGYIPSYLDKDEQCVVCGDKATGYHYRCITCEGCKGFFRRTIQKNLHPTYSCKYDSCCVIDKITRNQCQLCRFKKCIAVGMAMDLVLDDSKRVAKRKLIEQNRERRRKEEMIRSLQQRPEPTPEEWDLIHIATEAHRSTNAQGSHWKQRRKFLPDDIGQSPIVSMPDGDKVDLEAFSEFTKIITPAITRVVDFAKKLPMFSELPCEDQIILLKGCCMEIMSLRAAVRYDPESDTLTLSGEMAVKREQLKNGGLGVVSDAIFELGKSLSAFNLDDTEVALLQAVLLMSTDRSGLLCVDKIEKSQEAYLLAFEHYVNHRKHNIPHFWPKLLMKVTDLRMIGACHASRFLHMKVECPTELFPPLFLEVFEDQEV
How it was run: (§1)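 HEK293 reporter cells expressing Gal4-DBD/TR ligand-binding hybrids driving firefly luciferase from a Gal4 UAS; cells pre-incubated 6 h, then treated 24 h at 37 °C in medium with 10% charcoal-stripped FBS (final DMSO 0.1–0.4%), in duplicate. Read-out was luminescence (RLU).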

[2] = molecular target: T2, TRβ (Homo sapiens, UniProt P10828); test: TR reporter-gene assay (Gal4 DBD hybrid, luciferase), TRβ; assay type: cell-based; settings: for EC50: HEK293-derived reporter cells, 24 hr treatment, read-out: TRβ EC50; for T3-SI (selectivity index, EC50 (TRα)/EC50 (TRβ)): class symbols
T2 construct: expressed in transfected cells; host or cells: HEK293
T2 sequence (P10828 217-461 limits assumed): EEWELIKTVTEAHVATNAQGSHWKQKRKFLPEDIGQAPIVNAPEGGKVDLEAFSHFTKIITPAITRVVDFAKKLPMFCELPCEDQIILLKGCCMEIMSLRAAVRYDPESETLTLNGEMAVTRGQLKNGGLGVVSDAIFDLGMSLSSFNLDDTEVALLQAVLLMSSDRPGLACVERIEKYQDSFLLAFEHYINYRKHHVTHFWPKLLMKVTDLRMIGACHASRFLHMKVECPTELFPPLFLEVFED
How it was run: as §1

Structure (SMILES)	EC50 [1] [nM]	EC50 [2] [nM]	T3-SI (selectivity index, EC50 (TRα)/EC50 (TRβ)) [2]
C/C(=C\c1cc(C)c(Cc2ccc(O)c(C(C)C)c2F)c(Cl)c1)C(=O)O [Compound 248, (E)-3-(3-chloro-4-(2-fluoro-4-hydroxy-3-isopropylbenzyl)-5-methylphenyl)-2-methylacrylic acid]	10 to 100	10 to 100	+ (T3-SI ≤ 3×)
CC(C)c1cc(Cc2c(Cl)cc(NC(=O)CC(=O)O)cc2Cl)ccc1O [Compound 22, 3-((3,5-dichloro-4-(4-hydroxy-3-isopropylbenzyl)phenyl)amino)-3-oxopropanoic acid]	100 to 1000	100 to 1000	++ (3× < T3-SI ≤ 30×)
CC(C)c1cc(Cc2c(Cl)cc(OCCCCC(=O)O)cc2Cl)ccc1O [Compound 26, 5-(3,5-dichloro-4-(4-hydroxy-3-isopropylbenzyl)phenoxy)pentanoic acid]	100 to 1000	100 to 1000	+ (T3-SI ≤ 3×)
Cc1c(F)c(CSCC(=O)O)cc(Cl)c1Cc1ccc(O)c(C(C)C)c1 [Compound 226, 2-((5-chloro-2-fluoro-4-(4-hydroxy-3-isopropylbenzyl)-3-methylbenzyl)thio)acetic acid]	100 to 1000	100 to 1000	++ (3× < T3-SI ≤ 30×)
CC(C)c1cc(Cc2c(Cl)cc(OCCCC(=O)O)cc2Cl)ccc1O [Compound 24, 4-(3,5-dichloro-4-(4-hydroxy-3-isopropylbenzyl)phenoxy)butanoic acid]	100 to 1000	100 to 1000	+ (T3-SI ≤ 3×)
Cc1cc(CS(=O)(=O)CC(=O)O)cc(Cl)c1Cc1ccc(O)c(C(C)C)c1 [Compound 245, 2-((3-chloro-4-(4-hydroxy-3-isopropylbenzyl)-5-methylbenzyl)sulfonyl)acetic acid]	> 1000	> 1000	++ (3× < T3-SI ≤ 30×)
Cc1cc(NC(=O)CC(=O)O)cc(C)c1Cc1ccc(O)c(C(C)c2ccc(F)cc2)c1 (stereo not drawn) [Compound 4, 3-((4-(3-(1-(4-fluorophenyl)ethyl)-4-hydroxybenzyl)-3,5-dimethylphenyl)amino)-3-oxopropanoic acid]	100 to 1000	10 to 100	++ (3× < T3-SI ≤ 30×)
CC(C)c1c(O)ccc(Cc2c(Cl)cc(NCC(=O)O)c(F)c2Cl)c1F [Compound 78, (3,5-dichloro-2-fluoro-4-(2-fluoro-4-hydroxy-3-isopropylbenzyl)phenyl)glycine]	< 10	< 10	++ (3× < T3-SI ≤ 30×)
CC(C)c1cc(Cc2c(Cl)cc([S+]([O-])CC(=O)O)cc2Cl)ccc1O (stereo not drawn) [Compound 92, 2-((3,5-dichloro-4-(4-hydroxy-3-isopropylbenzyl)phenyl)sulfinyl)acetic acid]	> 1000	> 1000	+++ (T3-SI > 30×)
CC(C)c1cc(Cc2c(Cl)cc(/C=C\C(=O)O)cc2Cl)ccc1O [Compound 100, (Z)-3-(3,5-dichloro-4-(4-hydroxy-3-isopropylbenzyl)phenyl)acrylic acid]	100 to 1000	> 1000	+ (T3-SI ≤ 3×)
CC(C)c1cc(Cc2c(Cl)cc(SCC(=O)O)cc2Cl)ccc1O [Compound 91, 2-((3,5-dichloro-4-(4-hydroxy-3-isopropylbenzyl)phenyl)thio)acetic acid]	100 to 1000	100 to 1000	++ (3× < T3-SI ≤ 30×)
CC(c1ccc(F)cc1)c1cc(Cc2c(Cl)cc(CC(=O)O)cc2Cl)ccc1O (stereo not drawn) [Compound 9, 2-(3,5-dichloro-4-(3-(1-(4-fluorophenyl)ethyl)-4-hydroxybenzyl)phenyl)acetic acid]	10 to 100	< 10	++ (3× < T3-SI ≤ 30×)
